{"source": "patent US20250100963A1", "about": "“SULFONATED AND PHOSPHORYLATED AROMATIC MOLECULES” (Xavier University of Louisiana, priority 2023, published 2025)", "key": {"CatG [1]": {"molecular_target": "T1, CatG (Homo sapiens, UniProt P08311)", "T1 sequence (P08311 21-244)": "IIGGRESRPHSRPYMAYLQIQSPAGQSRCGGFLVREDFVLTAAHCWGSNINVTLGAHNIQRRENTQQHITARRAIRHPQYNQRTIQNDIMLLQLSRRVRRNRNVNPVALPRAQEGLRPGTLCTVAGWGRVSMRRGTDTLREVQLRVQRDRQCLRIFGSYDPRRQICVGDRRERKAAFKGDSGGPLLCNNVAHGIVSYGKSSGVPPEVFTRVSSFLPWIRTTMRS", "test": "Direct inhibition of human CatG, chromogenic substrate hydrolysis assay", "format": "biochemical", "experimental": "The method further comprises inhibition of proteases. […] To each well of a 96-well microplate containing 88 μl of 20 mM tris buffer containing 100 mM NaCl, 2.5 mM CaCl2, 0.1% PEG 8000 and 0.05% tween 80 was added 3 μl of CatG (final concentration of 30 nM), and 5 μl of H2O or potential inhibitor (final concentration of 0-100 μM). Following a 5-min incubation, 3 μl of CatG substrate was added (final concentration 750 μM) and the residual CatG activity was obtained from the initial rate of increase of absorbance at 405 nm. The relative residual activity of CatG at each of the inhibitor concentrations was obtained from the ratio of CatG activity in the presence and absence of the inhibitor. Logistic Equation (1) was used to plot the dose-dependence curve to obtain the IC50 (potency) and efficacy of CatG inhibition. Here, Y is the ratio of residual CatG activity in the presence of inhibitor to that in its absence, YO and YM are the minimum and maximum values of fractional residual CatG activity, respectively, IC50 is the concentration of the inhibitor that results in 50% inhibition of CatG activity and HS is the Hill slope.\nTo each well of a 96-well microplate containing 88 μl of 20 mM tris buffer containing 100 mM NaCl, 2.5 mM CaCl2, 0.1% PEG 8000 and 0.05% tween 80 was added 3 μl of CatG (final concentration of 30 nM), and 5 μl of H2O or potential inhibitor (final concentration of 0-100 μM). Following a 5-min incubation, 3 μl of CatG substrate was added (final concentration 750 μM) and the residual CatG activity was obtained from the initial rate of increase of absorbance at 405 nm. The relative residual activity of CatG at each of the inhibitor concentrations was obtained from the ratio of CatG activity in the presence and absence of the inhibitor. Logistic Equation (1) was used to plot the dose-dependence curve to obtain the IC50 (potency) and efficacy of CatG inhibition. Here, Y is the ratio of residual CatG activity in the presence of inhibitor to that in its absence, YO and YM are the minimum and maximum values of fractional residual CatG activity, respectively, IC50 is the concentration of the inhibitor that results in 50% inhibition of CatG activity and HS is the Hill slope."}, "CatG [2]": {"molecular_target": "T1, CatG", "test": "Salt-dependent direct inhibition of human CatG", "format": "biochemical", "settings": "for HS (Hill slope) / IC50 / ΔY (efficacy): pH 7.4, 37° C.; for Ki: estimated by IC50 to Ki conversion, noncompetitive model, read-out: Calculated Ki", "text": "The Ki (μM) values were estimated using an IC50 to Ki conversion equation [19].\nAlthough the sulfonated and/or phosphorylated compounds-CatG interaction is likely to be electrostatically driven, non-ionic forces may contribute to a significant extent. A significant non-ionic binding energy component increases the interaction specificity because the majority of non-ionic forces, for example, cation—π interactions, H-bonding and others depend strongly on the orientation and the distance of interacting pair of molecules. In contrast, ionic bonds are non-directional and less dependent on distance, which may increase initial interaction but offer less selectivity of recognition. […] The IC50 values were measured spectrophotometrically under various salt concentrations (100 and 200 mM), as described above. […] Subsequently, the corresponding Ki (nM) values were estimated using a formula previously reported following a classical model of noncompetitive enzyme inhibition and the results are reported below. […] Table 4 and FIG. 4."}}, "note": "Like-named read-outs stand apart in the source and are kept apart here.", "data": [{"compound": "O=C(Nc1cc(C(=O)Nc2ccc(S(=O)(=O)O)cc2S(=O)(=O)O)cc(C(=O)Nc2ccc(S(=O)(=O)O)cc2S(=O)(=O)O)c1)Nc1cc(C(=O)Nc2ccc(S(=O)(=O)O)cc2S(=O)(=O)O)cc(C(=O)Nc2ccc(S(=O)(=O)O)cc2S(=O)(=O)O)c1", "note": "[Formula II, 4,4′,4″,4′-((5,5′-(carbonylbis(azanediyl))bis(isophthaloyl))tetrakis(azanediyl))tetrakis(benzene-1,3-disulfonic acid)]", "values": [{"measurement": "IC50", "setting": "CatG [1]; Table 6, read-out: CATG IC50", "value": 90, "unit": "nM"}, {"measurement": "HS (Hill slope)", "setting": "CatG [1]; Tris buffer pH 7.4, 37° C.", "value": "1.5 ± 0.3"}, {"measurement": "ΔY (efficacy)", "setting": "CatG [1]; Tris buffer pH 7.4, 37° C.", "value": "82.5 ± 7.4", "unit": "%"}, {"measurement": "IC50", "setting": "CatG [1]; Tris buffer pH 7.4, 37° C., 100 mM NaCl, read-out: IC50", "value": "90 ± 10", "unit": "nM"}, {"measurement": "Decrease in potency on 2-fold increase in salt concentration", "setting": "CatG [2]; 100 vs 200 mM salt", "value": "~10", "unit": "fold"}, {"measurement": "HS (Hill slope)", "setting": "CatG [2]; [NaCl] 100 mM", "value": "1.5 ± 0.3"}, {"measurement": "IC50", "setting": "CatG [2]; [NaCl] 100 mM", "value": "90 ± 10", "unit": "nM"}, {"measurement": "ΔY (efficacy)", "setting": "CatG [2]; [NaCl] 100 mM", "value": "82.5 ± 7.4", "unit": "%"}, {"measurement": "Ki", "setting": "CatG [2]; [NaCl] 100 mM", "value": "~75", "unit": "nM"}, {"measurement": "HS (Hill slope)", "setting": "CatG [2]; [NaCl] 200 mM", "value": "1.5 ± 0.3"}, {"measurement": "IC50", "setting": "CatG [2]; [NaCl] 200 mM", "value": "920 ± 150", "unit": "nM"}, {"measurement": "ΔY (efficacy)", "setting": "CatG [2]; [NaCl] 200 mM", "value": "75.2 ± 3.4", "unit": "%"}, {"measurement": "Ki", "setting": "CatG [2]; [NaCl] 200 mM", "value": "~910", "unit": "nM"}]}]}
